From ChEMBL document CHEMBL1949658, “3D-QSAR and 3D-QSSR models of negative allosteric modulators facilitate the design of a novel selective antagonist of human α4β2 neuronal nicotinic acetylcholine receptors” (Bioorg Med Chem Lett, 2012)
pIC50: −log10 of the molar value.

Key:
[1] = target: Neuronal acetylcholine receptor; alpha4/beta2 (Homo sapiens, UniProt P17787+P43681); assay: Antagonist activity at human nAChR alpha4/beta2 receptor expressed in HEK ts201 cells assessed as calcium accumulation by fluorescence analysis; format: functional, cell-based; settings: for pIC50: read-out: IC50
[2] = target: Neuronal acetylcholine receptor; alpha3/beta4 (Homo sapiens, UniProt P30926+P32297); assay: Antagonist activity at human nAChR alpha3/beta4 receptor expressed in HEK ts201 cells assessed as calcium accumulation by fluorescence analysis; format: functional, cell-based; settings: for pIC50: read-out: IC50
Homo sapiens [3] = species on record: Homo sapiens; assay: Selectivity ratio of IC50 for human nAChR alpha3/beta4 receptor to IC50 for human nAChR alpha4/beta2 receptor
[4] = Lipophilicity, log P of the compound; format: physicochemical; settings: octanol/water
Homo sapiens [5] = species on record: Homo sapiens; assay: Selectivity ratio of pIC50 for human nAChR alpha3/beta4 receptor to pIC50 for human nAChR alpha4/beta2 receptor

Neuronal acetylcholine receptor; alpha3/beta4, sequence (P30926 whole entry): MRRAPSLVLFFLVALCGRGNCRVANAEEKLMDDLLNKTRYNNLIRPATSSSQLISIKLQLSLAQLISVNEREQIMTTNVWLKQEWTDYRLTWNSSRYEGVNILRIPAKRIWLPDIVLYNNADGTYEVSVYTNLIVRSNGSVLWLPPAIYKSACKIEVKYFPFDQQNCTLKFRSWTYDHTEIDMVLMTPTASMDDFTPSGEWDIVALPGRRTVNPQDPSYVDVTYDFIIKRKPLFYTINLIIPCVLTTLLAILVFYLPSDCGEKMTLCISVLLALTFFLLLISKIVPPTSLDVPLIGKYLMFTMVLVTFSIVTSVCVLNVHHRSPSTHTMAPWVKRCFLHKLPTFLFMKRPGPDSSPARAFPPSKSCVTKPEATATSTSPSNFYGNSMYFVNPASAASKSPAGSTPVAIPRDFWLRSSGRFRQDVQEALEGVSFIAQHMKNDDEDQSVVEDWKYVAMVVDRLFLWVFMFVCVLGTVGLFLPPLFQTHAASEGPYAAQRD
Neuronal acetylcholine receptor; alpha3/beta4, sequence (P32297 whole entry): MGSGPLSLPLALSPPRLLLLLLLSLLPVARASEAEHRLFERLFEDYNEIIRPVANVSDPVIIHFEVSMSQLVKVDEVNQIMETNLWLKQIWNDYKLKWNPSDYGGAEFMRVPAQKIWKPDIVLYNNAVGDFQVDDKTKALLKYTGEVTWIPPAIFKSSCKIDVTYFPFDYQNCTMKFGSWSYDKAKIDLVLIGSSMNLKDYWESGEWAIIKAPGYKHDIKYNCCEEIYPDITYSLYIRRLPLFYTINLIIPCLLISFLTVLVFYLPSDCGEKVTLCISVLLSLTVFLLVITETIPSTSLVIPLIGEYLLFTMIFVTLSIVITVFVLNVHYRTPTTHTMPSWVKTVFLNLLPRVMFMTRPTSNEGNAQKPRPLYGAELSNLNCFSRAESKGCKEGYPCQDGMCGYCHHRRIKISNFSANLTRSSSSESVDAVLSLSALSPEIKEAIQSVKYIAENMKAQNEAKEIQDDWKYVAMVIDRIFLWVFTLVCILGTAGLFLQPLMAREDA
Neuronal acetylcholine receptor; alpha4/beta2, sequence (P17787 whole entry): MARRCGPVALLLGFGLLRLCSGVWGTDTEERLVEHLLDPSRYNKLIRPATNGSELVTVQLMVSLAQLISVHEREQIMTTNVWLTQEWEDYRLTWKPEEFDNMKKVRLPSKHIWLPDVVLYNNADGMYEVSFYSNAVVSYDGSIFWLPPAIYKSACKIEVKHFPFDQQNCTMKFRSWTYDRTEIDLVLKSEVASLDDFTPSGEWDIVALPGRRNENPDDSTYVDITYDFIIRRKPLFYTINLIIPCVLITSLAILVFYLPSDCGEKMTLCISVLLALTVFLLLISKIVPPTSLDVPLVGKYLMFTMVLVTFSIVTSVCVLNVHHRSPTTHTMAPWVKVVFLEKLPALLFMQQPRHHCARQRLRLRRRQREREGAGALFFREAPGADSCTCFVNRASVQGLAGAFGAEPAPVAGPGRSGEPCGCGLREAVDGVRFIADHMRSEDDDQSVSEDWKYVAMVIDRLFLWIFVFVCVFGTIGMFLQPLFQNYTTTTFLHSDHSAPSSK
Neuronal acetylcholine receptor; alpha4/beta2, sequence (P43681 whole entry): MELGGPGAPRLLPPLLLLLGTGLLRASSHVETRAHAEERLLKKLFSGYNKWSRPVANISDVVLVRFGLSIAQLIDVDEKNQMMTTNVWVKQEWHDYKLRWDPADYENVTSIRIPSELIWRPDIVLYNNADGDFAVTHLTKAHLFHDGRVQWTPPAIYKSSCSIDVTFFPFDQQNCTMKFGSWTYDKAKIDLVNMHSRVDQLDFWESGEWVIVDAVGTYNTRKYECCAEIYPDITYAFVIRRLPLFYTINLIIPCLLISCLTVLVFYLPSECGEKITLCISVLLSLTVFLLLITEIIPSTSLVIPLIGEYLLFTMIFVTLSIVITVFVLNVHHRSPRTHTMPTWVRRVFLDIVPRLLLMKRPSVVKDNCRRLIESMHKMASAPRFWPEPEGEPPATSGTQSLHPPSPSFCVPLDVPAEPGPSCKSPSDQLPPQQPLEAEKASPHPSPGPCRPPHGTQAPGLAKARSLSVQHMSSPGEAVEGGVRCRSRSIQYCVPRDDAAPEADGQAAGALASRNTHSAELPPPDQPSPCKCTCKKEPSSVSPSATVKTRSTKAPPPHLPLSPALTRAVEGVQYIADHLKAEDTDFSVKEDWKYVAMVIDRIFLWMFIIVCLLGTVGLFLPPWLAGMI

With `O=C(Nc1ccncn1)c1ccccc1-c1ccccc1` the pIC50 [1] was 4.60, the pIC50 [2] was 4.40 and the Ratio IC50 (Homo sapiens [3]) was 1.6.
Work on `O=C(OCC1CCCN(C(=O)CCc2ccccc2)C1)c1ccccc1C(F)(F)F` (stereo not given) yielded a pIC50 [1] of 5.41, a pIC50 [2] of 5.20 and a Ratio IC50 (Homo sapiens [3]) of 2.1.
`O=C(NCc1cccc2ccccc12)c1ccccc1-c1ccccc1` showed a logP [4] of 5, a pIC50 [1] of 4.86 and a pIC50 [2] of less than 4.00. The Ratio IC50 (Homo sapiens [3]) was greater than 10.
Molecule `O=C(OCC1CCCN(CCCc2ccccc2)C1)c1ccccc1-c1ccccc1` (stereo not given) has a Ratio pIC50 (Homo sapiens [5]) of 3.87, a logP [4] of 5.9 and a pIC50 [1] of 4.87. The pIC50 [2] was less than 4.00.
`O=C(OC1CCCN(C(=O)CCc2ccccc2)C1)c1ccccc1-c1ccccc1` (stereo not given) gave a pIC50 [1] of 5.37, a pIC50 [2] of 5.22 and a Ratio IC50 (Homo sapiens [3]) of 1.5.
`O=C(NCc1ccccc1)c1ccccc1-c1ccccc1` gave a pIC50 [1] of 5.12, a pIC50 [2] of 5.12 and a Ratio IC50 (Homo sapiens [3]) of 1.
`O=C(Nc1ccccc1)c1ccccc1-c1ccccc1` gave a pIC50 [1] of 5.16, a pIC50 [2] of 4.97 and a Ratio IC50 (Homo sapiens [3]) of 1.6.
In the case of `O=C(Nc1ccccn1)c1ccccc1-c1ccccc1`, the pIC50 [1] was 4.87, the pIC50 [2] was 4.76 and the Ratio IC50 (Homo sapiens [3]) was 1.3.
`O=C(Nc1cccc2ccccc12)c1ccccc1-c1ccccc1` showed a pIC50 [1] of 4.97, a pIC50 [2] of 4.74 and a Ratio IC50 (Homo sapiens [3]) of 1.8.
For `O=C(OCC1CCCN(CCCn2cc(-c3ccccc3)nn2)C1)c1ccccc1-c1ccccc1` (single isomer, unassigned), the Ratio pIC50 (Homo sapiens [5]) was 1.78, the IC50 ([1]; read-out: pIC50 (converted)) was 6.46 µM and the IC50 ([2]; read-out: pIC50 (converted)) was 389 µM.
In the case of `O=C(OCC1CCN(C(=O)CCc2ccccc2)CC1)c1ccccc1-c1ccccc1`, the pIC50 [1] was 5.23, the pIC50 [2] was 5.03 and the Ratio IC50 (Homo sapiens [3]) was 1.4.
